Read-outs that look alike come from different tables or passages of the source.
Experiments:
[1] = test system: T1, Plasmodium falciparum 3D7; assay: microbe, parasite or virus in culture; design: species or system P. falciparum 3D7 in human erythrocytes; Asexual blood stage growth inhibition dose response of parental 3D7 parasites, EC50; settings: 3D7, Erythrocyte
T1 construct: 3D7 parental line, asexual blood stage
Description: Fig. 1 Gene-edited PfACS10 and PfACS11 lines phenocopy parasite lines selected to become resistant to a range of antiplasmodial chemotypes. a Chemical structures of the compounds used in drug selections. b–d Dose response curves for a representative example of the parental 3D7 line (black), the selected lines (ACS11E668K_S, ACS11F387V_S, and ACS10M300I_S) and the genetically edited lines (ACS11E668K_C, ACS11F387V_C, and ACS10M300I_C) against the compound used to select for the resistant lines. At least three biological replicates were run for each strain in technical triplicates. Shown are the average ±SD and the non-linear regression curve fit for one biological assay run in triplicate. Statistical significances for EC50 are reported in Supplementary Data 1 and source data are provided as a Source Data file. Previous work by the MalDA consortium identified MMV019719 and MMV665924 as two new phenotypic hits from the chemically diverse Medicines for Malaria Venture (MMV) Malaria Box[8],[12]. […] To verify the role of these mutations in conferring resistance to these two compounds (resistance is defined here as a more than 2-fold shift in EC50 values in in vitro culture compared to the parental line), we used CRISPR/Cas9 technology to perform allelic replacements of a subset of the mutations observed (Supplementary Fig. 1 and Supplementary Table 1). Using the 3D7 parental line, we introduced the individual point mutations F387V or E668K into PfACS11 and M300I into PfACS10, yielding the gene-edited lines ACS11F387V_C, ACS11E668K_C, and ACS10M300I_C. These parasites phenocopied the increase in EC50 values seen in drug-selected compared to wildtype parasites (Fig. 1a–c and Supplementary Data 1). These findings confirm that the mutations in PfACS10 and PfACS11 identified by resistance selections with MMV019719 and MMV665924 are sufficient to reduce susceptibility to these compounds. […] MMV019719, MMV665924, and MMV897615 were freely available as part of the Medicines for Malaria Venture’s (MMV) Malaria Box. Triacsin C was purchased from Sigma-Aldrich (St. Louis, MO, ref. T4540). The 3D7 P. falciparum strain was originally obtained through MR4 as part of the BEI Resources Repository, NIAID, NIH: 3D7, MRA-102, deposited by D. J. Carucci. We also used 3D7- IG06 (a fast-growing 3D7 clone)[64] donated by Daniel Goldberg and Dd2-Polδ[23] donated by Marcus Lee. The Malawi parasites (CF04.008 10B and CF04.009 6D and 1 G, two different patient isolates that were subcloned after culture adaption) were kindly donated by Danny Milner[26]. Parasites were cultured by standard methods[65] in RPMI 1640 medium supplemented with 28 mM NaHCO3, 25 mM HEPES, 400 μM hypoxanthine, 25 μg/mL gentamicin, and 0.5% AlbuMAX II (Life Technologies, Carlsbad, CA 11021-045). The human erythrocytes were sourced ethically, and their research use was in accord with the terms of approved protocol.

[2] = test system: T2, Plasmodium falciparum PolD (Dd2-Polδ); assay: microbe, parasite or virus in culture; design: species or system P. falciparum Dd2-Polδ in human erythrocytes; Parasite survival dose response by flow cytometry with SYBR Green and MitoTracker Deep Red, EC50; settings: DD2, Erythrocyte, 72 h
T2 construct: Dd2-Polδ parental hypermutator line, wild-type PfACS10, asexual blood stage
Method: To define the EC50 of parasites, ring-stage cultures at 0.2% parasitemia and 1% hematocrit were exposed for 72 h to a range of ten drug concentrations that were 2-fold serially diluted in duplicates along with DMSO controls. Parasite survival was assessed by flow cytometry on an iQue flow cytometer (Sartorius) using SYBR Green and MitoTracker Deep Red FM (Life Technologies) as nuclear stain and vital dyes respectively. Fig. 2 Mutations in PfACS10 can cause collateral sensitivity to distinct chemotypes. Mean EC50 ± SD values for strains containing mutations in PfACS10 selected in the Dd2-Polδ line (A268D, A268V, and F427L) and in 3D7 (M300I), are shown for MMV897615, MMV665924, and MMV019719. Assays were run in triplicate and at least repeated twice. ANOVA with Dunnett post-tests compared mutations in the Dd2-Polδ line, a p < 0.001, b p = 0.005. Two-sided unpaired Student’s t test compared 3D7 and ACS10M300I_C. c p = 0.0003, d p = 0.0000008, e p = 0.0016. Source data are provided as a Source Data file and in Supplementary Data 1. More recently, we performed selections in a hypermutator P. falciparum line (Dd2-Polδ[23]) with MMV897615, which yielded three novel mutations in PfACS10 that confer at least a seven-fold increase in resistance (ACS10A268D, ACS10A268V, and ACS10F427L, Fig. 2 and Supplementary Data 1 and 3). […]

Compound: O[C@@H](c1cc(C(F)(F)F)nc2c(C(F)(F)F)cccc12)[C@H]1CCCCN1 (racemic) [mefloquine]
- EC50 ([1]; read-out: Mefloquine (MQ) / EC50 [nM]): 15.3 nM

Compound: CCc1cccc(CNC(=O)c2nc3cccc(COCc4ccc(C(=O)O)cc4)c3c(=O)[nH]2)c1 [19f, MMV897615]
- EC50 ([2]; read-out: MMV897615 / EC50 [nM] (b) / EC50 [nM] (c)): 39.6 nM
- EC50 ([1]; read-out: MMV897615 / EC50 [nM] (b)): 52.9 nM

Compound: COc1ccc(C(=O)C2CC2c2ccc(Cl)cc2)cc1 (stereo not drawn) [MMV665924]
- EC50 ([2]; read-out: MMV665924 / EC50 [nM] (a) / EC50 [nM] (c)): 1360 nM
- EC50 ([1]; read-out: MMV665924 / EC50 [nM] (a)): 340 nM

Compound: CCC/C=C/C/C=C/C=C/C=N/NN=O [Triacsin C]
- EC50 ([1]; read-out: Triacsin / EC50 [nM]): 549 nM

Compound: CCN(CC)Cc1cc(Nc2ccnc3cc(Cl)ccc23)ccc1O [amodiaquine]
- EC50 ([1]; read-out: Amodiaquin (ADQ) / EC50 [nM]): 4.34 nM

Compound: O=C1C(O)=C([C@H]2CC[C@H](c3ccc(Cl)cc3)CC2)C(=O)c2ccccc21 [atovaquone]
- EC50 ([1]; read-out: Atovaquone (ATQ) / EC50 [nM]): 0.287 nM

Compound: C=C[C@H]1CN2CC[C@H]1C[C@H]2[C@H](O)c1ccnc2ccc(OC)cc12 [quinine]
- EC50 ([1]; read-out: Quinine (QN) / EC50 [nM]): 37.3 nM

From paper PMC10020447, “Potent acyl-CoA synthetase 10 inhibitors kill Plasmodium falciparum by disrupting triglyceride formation” (Nature Communications, 2023)
